# Test results taken from US10221173B2, “Chemical compounds” (AstraZeneca AB, priority 2017, dated 2019).
# Columns and labels:
# [1] = biological target: recombinant human Estrogen Receptor alpha ligand binding domain (ER alpha-LBD (GST)) (Homo sapiens (Human), UniProt P03372); experiment: ERα binding assay (LanthaScreen TR-FRET competition)
# hERG potassium channel = hERG potassium channel (Homo sapiens (Human), UniProt Q12809)
# Procedure: The assay was conducted as follows with all reagents used at room temperature unless otherwise stated.
# All compounds were acoustically dispensed in quadruplicate using a Labcyte Echo.
# Calculation of results is performed using APC package within Genedata. For the routine normalization of well data with Neutral and Inhibitor control well groups as reference, GeneData Assay Analyzer uses the following equation to normalize the signal values to the desired signal range:
# [formula] x is the measured raw signal value of a well is the median of the measured signal values for the Central Reference (Neutral) wells on a plate is the median of the measured signal values for the Scale Reference (Inhibitor) wells on a plate CR is the desired median normalized value for the Central Reference (Neutral) SR is the desired median normalized value for the Scale Reference (Inhibitor)
# [2] = biological target: T1, Estrogen Receptor (ERα) in MCF-7 cells (Homo sapiens (Human), UniProt P03372); experiment: Western blotting assay, ER down-regulation in MCF-7; assay type: cell-based; conditions: MCF-7, 100 nM compound, 48 h, vs 100 nM fulvestrant
# T1 sequence (P03372 whole entry): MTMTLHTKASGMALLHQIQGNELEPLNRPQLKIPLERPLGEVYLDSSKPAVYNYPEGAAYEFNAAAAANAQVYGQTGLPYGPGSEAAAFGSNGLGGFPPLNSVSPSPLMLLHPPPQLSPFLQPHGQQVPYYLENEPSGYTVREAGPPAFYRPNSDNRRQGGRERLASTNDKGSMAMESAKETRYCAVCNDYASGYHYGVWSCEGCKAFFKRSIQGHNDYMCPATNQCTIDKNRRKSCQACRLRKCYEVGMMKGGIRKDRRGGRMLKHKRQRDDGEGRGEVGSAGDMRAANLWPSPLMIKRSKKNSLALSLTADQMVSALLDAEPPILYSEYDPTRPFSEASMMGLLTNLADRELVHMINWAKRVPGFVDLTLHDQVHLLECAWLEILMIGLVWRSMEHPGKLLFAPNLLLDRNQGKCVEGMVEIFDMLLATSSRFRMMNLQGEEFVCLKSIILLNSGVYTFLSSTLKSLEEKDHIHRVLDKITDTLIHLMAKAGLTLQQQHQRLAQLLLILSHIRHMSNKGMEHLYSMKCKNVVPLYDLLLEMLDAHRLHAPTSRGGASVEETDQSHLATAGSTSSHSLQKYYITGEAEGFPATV
# [3] = biological target: estrogen receptor (ERα) in CAMA-1 cells (Homo sapiens (Human), UniProt P03372); experiment: Western blotting assay, ER down-regulation in CAMA-1; assay type: cell-based; conditions: CAMA-1, 100 nM compound, 48 h, vs 100 nM fulvestrant
# estrogen receptor (ERα) in CAMA-1 cells, sequence (P03372 whole entry): as above
# [4] = biological target: T1, Estrogen Receptor (ERα) in MCF-7 cells; experiment: MCF-7 ER down-regulation assay (immuno-fluorescence); assay type: cell-based
# [5] = Thermodynamic solubility (shake-flask); assay type: physicochemical; conditions: aqueous phosphate buffer, 25 °C, pH 7.4, aqueous buffer, thermodynamic from solid, phosphate buffer pH 7.4, 24 hours
# [6] = Log D (shake flask, 1-octanol/aqueous buffer); assay type: physicochemical; conditions: 1-octanol/aqueous buffer, pH 7.4, pH 7.4
# [7] = Human plasma protein binding (equilibrium dialysis); assay type: in vitro ADME
# recombinant human Estrogen Receptor alpha ligand binding domain (ER alpha-LBD (GST)), sequence (P03372 307-554): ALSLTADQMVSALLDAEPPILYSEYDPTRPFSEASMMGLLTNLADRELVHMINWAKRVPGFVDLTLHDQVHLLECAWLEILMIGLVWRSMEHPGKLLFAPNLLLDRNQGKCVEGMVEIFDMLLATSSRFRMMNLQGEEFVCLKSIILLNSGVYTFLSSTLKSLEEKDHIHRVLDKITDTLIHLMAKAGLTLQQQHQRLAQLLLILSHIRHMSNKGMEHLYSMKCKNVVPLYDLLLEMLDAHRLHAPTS
# hERG potassium channel, sequence (Q12809 whole entry): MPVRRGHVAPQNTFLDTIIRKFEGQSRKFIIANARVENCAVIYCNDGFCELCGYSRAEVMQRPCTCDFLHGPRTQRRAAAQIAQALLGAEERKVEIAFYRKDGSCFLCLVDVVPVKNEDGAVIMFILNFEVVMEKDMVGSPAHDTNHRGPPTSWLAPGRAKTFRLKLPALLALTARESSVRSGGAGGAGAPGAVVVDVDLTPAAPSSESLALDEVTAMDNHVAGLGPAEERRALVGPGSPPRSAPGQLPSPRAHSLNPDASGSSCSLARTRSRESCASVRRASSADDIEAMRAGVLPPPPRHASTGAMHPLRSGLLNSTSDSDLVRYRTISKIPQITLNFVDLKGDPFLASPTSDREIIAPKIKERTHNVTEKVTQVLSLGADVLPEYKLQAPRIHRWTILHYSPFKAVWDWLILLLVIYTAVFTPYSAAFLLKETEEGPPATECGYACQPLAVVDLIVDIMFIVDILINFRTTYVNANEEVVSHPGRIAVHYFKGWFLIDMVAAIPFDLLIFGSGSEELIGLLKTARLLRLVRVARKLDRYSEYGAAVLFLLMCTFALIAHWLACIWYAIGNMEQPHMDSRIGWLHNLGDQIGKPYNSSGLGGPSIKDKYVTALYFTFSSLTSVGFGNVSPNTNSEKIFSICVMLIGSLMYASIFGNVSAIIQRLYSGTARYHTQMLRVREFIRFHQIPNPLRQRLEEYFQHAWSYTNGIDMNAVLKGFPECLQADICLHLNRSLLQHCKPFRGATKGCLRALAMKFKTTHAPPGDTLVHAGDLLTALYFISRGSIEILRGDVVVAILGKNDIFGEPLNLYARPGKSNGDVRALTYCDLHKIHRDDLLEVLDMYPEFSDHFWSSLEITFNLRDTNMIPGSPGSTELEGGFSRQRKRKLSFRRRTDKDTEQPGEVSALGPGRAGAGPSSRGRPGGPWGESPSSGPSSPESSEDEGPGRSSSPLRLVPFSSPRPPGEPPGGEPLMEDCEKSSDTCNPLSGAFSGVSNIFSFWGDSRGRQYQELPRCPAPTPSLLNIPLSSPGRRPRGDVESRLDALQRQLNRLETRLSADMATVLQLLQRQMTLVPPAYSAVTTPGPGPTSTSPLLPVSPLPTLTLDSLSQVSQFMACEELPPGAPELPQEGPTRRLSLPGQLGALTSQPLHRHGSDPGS
Compound,IC50 [1] [nM],IC50 (hERG potassium channel) [nM],MCF7 Western % ER deg vs Fv [2] [%],CAMA1 Western % ER deg vs Fv [3] [%],IC50 [4] [nM],solubility at 24 h [5] [µM],logD [6],Human plasma protein binding (% free) [7] [% free]
"COc1cnc(OCCNCCCF)cc1[C@@H]1c2[nH]c3ccccc3c2C[C@@H](C)N1CC(F)(F)F [Example 12, 3-fluoro-N-(2-((5-methoxy-4-((1R,3R)-3-methyl-2-(2,2,2-trifluoroethyl)-2,3,4,9-tetrahydro-1H-pyrido[3,4-b]indol-1-yl)pyridin-2-yl)oxy)ethyl)propan-1-amine]",0.62,8200,92,89,0.059,,,
"COc1ccc(OCCNCCCF)cc1[C@@H]1c2[nH]c3ccccc3c2C[C@@H](C)N1CC(F)(F)CO [Example 8, 2,2-Difluoro-3-((1R,3R)-1-(5-(2-((3-fluoropropyl)amino)ethoxy)-2-methoxyphenyl)-3-methyl-1,3,4,9-tetrahydro-2H-pyrido[3,4-b]indol-2-yl)propan-1-ol]",,,98,93,,617,,
"C[C@@H]1Cc2c([nH]c3ccccc23)[C@@H](c2c(F)ccc(OCCNCCCF)c2F)N1C[C@H](C)C(=O)O [Example 58, (S)-3-((1R,3R)-1-(2,6-difluoro-3-(2-((3-fluoropropyl)amino)ethoxy)phenyl)-3-methyl-1,3,4,9-tetrahydro-2H-pyrido[3,4-b]indol-2-yl)-2-methylpropanoic acid]",,,76,83,,> 1000,,
"C[C@@H]1Cc2c([nH]c3ccccc23)[C@@H](c2c(F)ccc(OCCNCCCF)c2F)N1CC(F)(F)F [Example 9, N-(2-(2,4-difluoro-3-((1R,3R)-3-methyl-2-(2,2,2-trifluoroethyl)-2,3,4,9-tetrahydro-1H-pyrido[3,4-b]indol-1-yl)phenoxy)ethyl)-3-fluoropropan-1-amine]",1.2,,97,101,0.088,,,
"C[C@@H]1Cc2c([nH]c3ccccc23)[C@@H](c2c(F)ccc(OCCNCCCF)c2F)N1CC1(F)CC1 [Example 76, N-(2-(2,4-difluoro-3-((1R,3R)-2-((1-fluorocyclopropyl)methyl)-3-methyl-2,3,4,9-tetrahydro-1H-pyrido[3,4-b]indol-1-yl)phenoxy)ethyl)-3-fluoropropan-1-amine]",1,,92,85,0.21,,,
"C[C@@H]1Cc2c([nH]c3ccccc23)[C@@H](c2cccc(OCCNCCCF)c2)N1CC(F)(F)F [Example 16, 3-fluoro-N-(2-(3-((1R,3R)-3-methyl-2-(2,2,2-trifluoroethyl)-2,3,4,9-tetrahydro-1H-pyrido[3,4-b]indol-1-yl)phenoxy)ethyl)propan-1-amine]",,,89,83,,74,,
"Cc1c(OCCNCCC(F)F)ccc(F)c1[C@@H]1c2[nH]c3ccccc3c2C[C@@H](C)N1C[C@H](C)C(=O)O [Example 124, (S)-3-((1R,3R)-1-(3-(2-((3,3-Difluoropropyl)amino)ethoxy)-6-fluoro-2-methylphenyl)-3-methyl-1,3,4,9-tetrahydro-2H-pyrido[3,4-b]indol-2-yl)-2-methylpropanoic acid]",3.9,,93,82,0.68,,,
"C[C@@H]1Cc2c([nH]c3ccccc23)[C@@H](c2c(F)cnc(OCCNCCCF)c2Cl)N1CC(F)(F)CO [Example 111, 3-((1R,3R)-1-(3-chloro-5-fluoro-2-(2-((3-fluoropropyl)amino)ethoxy)pyridin-4-yl)-3-methyl-1,3,4,9-tetrahydro-2H-pyrido[3,4-b]indol-2-yl)-2,2-difluoropropan-1-ol]",0.6,,84,92,0.07,469,3.1,1.4
"COc1ccc(OCCNCCCF)cc1[C@@H]1c2[nH]c3ccccc3c2C[C@@H](C)N1CC1(F)COC1 [Example 4, 3-Fluoro-N-(2-(3-((1R,3R)-2-((3-fluorooxetan-3-yl)methyl)-3-methyl-2,3,4,9-tetrahydro-1H-pyrido[3,4-b]indol-1-yl)-4-methoxyphenoxy)ethyl)propan-1-amine]",,,56,75,,543,,
"C[C@@H](CN1[C@H](c2c(F)cnc(OCCNCCCF)c2Cl)c2[nH]c3ccccc3c2C[C@H]1C(F)(F)F)C(=O)O [Example 142, (S)-3-((1R,3S)-1-(3-chloro-5-fluoro-2-(2-((3-fluoropropyl)amino)ethoxy)pyridin-4-yl)-3-(trifluoromethyl)-1,3,4,9-tetrahydro-2H-pyrido[3,4-b]indol-2-yl)-2-methylpropanoic acid]",1.5,,85,80,0.95,,,
"C[C@@H]1Cc2c([nH]c3ccccc23)[C@@H](c2cc(OCCNCCCF)ccc2Cl)N1CC(F)(F)F [Example 22, N-(2-(4-chloro-3-((1R,3R)-3-methyl-2-(2,2,2-trifluoroethyl)-2,3,4,9-tetrahydro-1H-pyrido[3,4-b]indol-1-yl)phenoxy)ethyl)-3-fluoropropan-1-amine]",1.4,,96,96,0.12,0.7,4.2,0.61
"CCc1ccc(OCCNCCCF)cc1[C@@H]1c2[nH]c3ccccc3c2C[C@@H](C)N1CC(F)(F)F [Example 21, N-(2-(4-ethyl-3-((1R,3R)-3-methyl-2-(2,2,2-trifluoroethyl)-2,3,4,9-tetrahydro-1H-pyrido[3,4-b]indol-1-yl)phenoxy)ethyl)-3-fluoropropan-1-amine]",2.6,,99,95,1.6,3,4.6,0.10
"C[C@@H]1Cc2c([nH]c3ccccc23)[C@@H](c2c(F)cnc(OCCNCCCF)c2F)N1CC(F)(F)CO [Example 64, 3-((1R,3R)-1-(3,5-difluoro-2-(2-((3-fluoropropyl)amino)ethoxy)pyridin-4-yl)-3-methyl-1,3,4,9-tetrahydro-2H-pyrido[3,4-b]indol-2-yl)-2,2-difluoropropan-1-ol]",0.96,,96,98,0.071,,,
"C[C@@H]1Cc2c([nH]c3ccccc23)[C@@H](c2cccc(OCCNCCCF)c2)N1CC1(F)COC1 [Example 1, 3-Fluoro-N-(2-(3-((1R,3R)-2-((3-fluorooxetan-3-yl)methyl)-3-methyl-2,3,4,9-tetrahydro-1H-pyrido[3,4-b]indol-1-yl)phenoxy)ethyl)propan-1-amine]",,4400,79,66,,303,,
"COc1ccc(OCCNCCCF)cc1[C@@H]1c2[nH]c3ccccc3c2C[C@@H](C)N1CC(F)F [Example 6, N-(2-(3-((1R,3R)-2-(2,2-difluoroethyl)-3-methyl-2,3,4,9-tetrahydro-1H-pyrido[3,4-b]indol-1-yl)-4-methoxyphenoxy)ethyl)-3-fluoropropan-1-amine]",,,97,81,,154,,
"Cc1c(OCCNCCCF)ccc(F)c1[C@@H]1c2[nH]c3ccc(F)cc3c2C[C@@H](C)N1C[C@@H](C)C(=O)O [Example 121, (R)-3-((1R,3R)-6-fluoro-1-(6-fluoro-3-(2-((3-fluoropropyl)amino)ethoxy)-2-methylphenyl)-3-methyl-1,3,4,9-tetrahydro-2H-pyrido[3,4-b]indol-2-yl)-2-methylpropanoic acid]",2.8,,85,107,0.53,,,
"Cc1c(OCCNCCCF)ccc(F)c1[C@@H]1c2[nH]c3ccccc3c2C[C@@H](C(F)F)N1C[C@H](C)C(=O)O [Example 137, (S)-3-((1R,3S)-3-(difluoromethyl)-1-(6-fluoro-3-(2-((3-fluoropropyl)amino)ethoxy)-2-methylphenyl)-1,3,4,9-tetrahydro-2H-pyrido[3,4-b]indol-2-yl)-2-methylpropanoic acid]",1.7,,90,95,0.52,,,
